# Measurements as given in patent US11117898B2, “Pyrazolo-heteroaryl derivative, preparation method and medical use thereof” (Jiangsu Hengrui Medicine Co., Ltd., priority 2016, dated 2021).
# What was measured:
# [1] = target: CYP3A4 (Homo sapiens (Human), UniProt P08684); test: Inhibition of the testosterone metabolite site of CYP3A4 in human liver microsomes; assay type: in vitro ADME; settings: probe substrate testosterone
# Procedure: The effect of the compounds of the present invention on the enzyme activity of testosterone metabolite site of CYP3A4 in human liver microsomes was determined by the following experimental method:
# (§1) 100 mM PBS buffer was formulated, which was then used to formulate 2.5 mg/ml microsome solution and 5 mM NADPH solution. The 5× concentration of the compound working solution was diluted with PBS gradient (150, 50, 15, 5, 1.5, 0.15, 0.015, 0 μM). The 5× concentration of ketoconazole working solution was diluted with PBS gradient (150, 50, 15, 5, 1.5, 0.15, 0.015, 0 μM). Dextromethorphan working solution was diluted with PBS to a concentration of 50 μM.
# (§2) 20 μl of 2.5 mg/ml microsome solution, 20 μl of 50 μM testosterone working solution, 20 μl of MgCl2 solution and 20 μl of the compound working solution (150, 50, 15, 5, 1.5, 0.15, 0.015, 0 μM, different reaction systems for each concentration) were taken respectively and mixed well. For the positive control group, the compound was replaced with the same concentration of ketoconazole. The mixture together with 5 mM NADPH solution were pre-incubated at 37° C. for 5 minutes. After 5 minutes, 20 μl of NADPH were added to each well, the reaction was started and incubated for 30 minutes. All the incubated samples were present in duplicate. After 30 minutes, 250 μl of acetonitrile containing internal standard were added to all samples, mixed well, shaken at 800 rpm for 10 minutes, and then centrifuged at 3700 rpm for 10 minutes. 80 μl of the supernatant were taken and analyzed by LC-MS/MS.
# The data were calculated by Graphpad Prism to obtain the IC50 values of the compounds on the testosterone metabolite site of CYP3A4.
# [2] = system: PBMC; test: Stimulation of the secretion of IFN-α from peripheral blood mononuclear cells (PBMC); assay type: cell-based, human; settings: minimal effective concentration: lowest concentration giving cytokine level at least 3 times the minimum detection limit; 24 hours incubation
# Procedure: The ability of the compounds of the present invention to stimulate the secretion of IFN-α from PBMC was determined by the following experimental method:
# The compound was diluted with pure DMSO to a maximum concentration of 5 mM, and a total of 9 points were obtained by a 4-fold gradient dilution. 4 μl of the compound were then added to 196 μl of RMPI 1640 medium containing 10% FBS and mixed well. 50 μl of the mixture were taken from each well and added to a new 96-well plate.
# All reagents were equilibrated to room temperature. 60 ml of blood and PBS+2% FBS were added to a 250 ml culture flask, gently pipetted, mixed well and diluted. 15 ml of lymphocyte separation solution Ficoll-Paque PREMIUM and then 30 ml of diluted blood were added to a 50 ml PBMC centrifuge tube SepMate™-50. The mixture was centrifuged at 1200 g for 10 minutes at room temperature. The supernatant was taken and then centrifuged at 300 g for 8 minutes. The cells were re-suspended in the RMPI 1640 medium containing 10% FBS and counted, and the number of PBMCs was adjusted to 3.33×10^6 cells/ml. 150 μl of the cell solution were added to the plate added with the compound, and incubated in an incubator at 37° C., in 5.0% CO2 for 24 hours.
# The cell culture plate was placed in a centrifuge, and centrifuged at 1200 rpm for 10 minutes at room temperature. 150 μl of the supernatant were taken from each well. The reagents in the human IFN-α kit were first equilibrated to normal temperature. The anti-IFN-α-Eu^3+-Cryptate conjugate and the anti-IFN-α-d2-conjugate were formulated in the dark according to the kit instructions, and both of them were mixed well with the conjugate buffer at a ratio of 1:40. 16 μl of the supernatant obtained by centrifugation were then added to each well. 2 μl of anti-IFN-α-Eu^3+-Cryptate conjugate and anti-IFN-α-d2-conjugate formulated just now were then added to each well. The plate was shaken and mixed well, and incubated in the dark at room temperature for 3 hours.
# The PHERAStar was read in the HTRF mode. The lowest compound concentration that stimulated cytokine levels of at least 3 times higher than the minimum detection limit was defined as the minimal effective concentration (MEC) value of the compound in the cytokine stimulation test.
# The ability of the compounds of the present invention to stimulate the secretion of IFN-α from PBMC was determined by the above test, and the obtained MEC values are shown in Table 3.
# [3] = target: CYP2D6 (Homo sapiens (Human), UniProt P10635); test: Inhibition of the enzyme activity of CYP2D6 in human liver microsomes; assay type: in vitro ADME; settings: probe substrate dextromethorphan
# Procedure: The effect of the compounds of the present invention on the enzyme activity of CYP2D6 in human liver microsomes was determined by the following experimental method:
# as §1, with “quinidine” for “ketoconazole”
# as §2, with “quinidine.” for “ketoconazole.”
# The data were calculated by Graphpad Prism to obtain the IC50 values of the compounds on the metabolite site of CYP2D6.
# Sequence of CYP2D6 (P10635 whole entry): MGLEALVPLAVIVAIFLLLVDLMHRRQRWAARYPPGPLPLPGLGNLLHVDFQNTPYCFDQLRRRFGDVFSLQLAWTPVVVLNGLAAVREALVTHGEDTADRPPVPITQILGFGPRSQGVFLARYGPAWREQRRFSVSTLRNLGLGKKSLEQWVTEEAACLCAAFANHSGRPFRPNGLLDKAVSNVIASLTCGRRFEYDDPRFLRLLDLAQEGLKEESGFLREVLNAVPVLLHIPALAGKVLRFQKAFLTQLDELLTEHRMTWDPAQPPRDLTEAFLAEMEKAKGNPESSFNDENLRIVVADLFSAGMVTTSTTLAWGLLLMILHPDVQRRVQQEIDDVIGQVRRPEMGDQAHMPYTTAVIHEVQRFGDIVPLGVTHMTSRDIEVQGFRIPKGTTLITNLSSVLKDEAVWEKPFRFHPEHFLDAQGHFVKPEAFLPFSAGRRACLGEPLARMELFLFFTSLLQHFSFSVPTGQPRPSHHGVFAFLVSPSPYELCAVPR
# Sequence of CYP3A4 (P08684 whole entry): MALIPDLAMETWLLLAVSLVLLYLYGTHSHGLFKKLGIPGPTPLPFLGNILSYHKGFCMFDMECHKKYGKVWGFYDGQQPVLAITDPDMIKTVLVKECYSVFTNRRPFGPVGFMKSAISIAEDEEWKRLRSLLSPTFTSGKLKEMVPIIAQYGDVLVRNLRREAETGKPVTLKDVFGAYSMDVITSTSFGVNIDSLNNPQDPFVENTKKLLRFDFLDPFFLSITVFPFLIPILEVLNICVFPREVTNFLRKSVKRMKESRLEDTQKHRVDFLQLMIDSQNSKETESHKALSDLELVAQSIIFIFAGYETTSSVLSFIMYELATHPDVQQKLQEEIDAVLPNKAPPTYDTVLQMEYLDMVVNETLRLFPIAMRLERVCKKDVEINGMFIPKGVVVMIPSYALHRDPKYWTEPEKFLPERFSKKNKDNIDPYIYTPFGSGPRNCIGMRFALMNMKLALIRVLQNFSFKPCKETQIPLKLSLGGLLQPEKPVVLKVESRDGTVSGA
Structure (SMILES),IC50 [1] [µM],MEC to stimulate the secretion of IFN-α from PBMC [2] [nM],IC50 [3] [µM]
"CCCCOc1nc(N)c2cnn(Cc3cccc(CN4CCCC4)c3)c2n1 [Example 4, 6-Butoxy-1-(3-(pyrrolidin-1-ylmethyl)benzyl)-1H-pyrazolo[3,4-d]pyrimidin-4-amine]",6,100,16
"COCCOc1nc(N)c2cnn(Cc3ccc(CN4CCCC4)cc3)c2n1 [Example 7, 6-(2-Methoxyethoxy)-1-(4-(pyrrolidin-1-ylmethyl)benzyl)-1H-pyrazolo[3,4-d]pyrimidin-4-amine]",> 30,89,> 30
"CCCCOc1nc(N)c2cnn(Cc3ccc(CN4CCC4)cc3)c2n1 [Example 2, 1-(4-(Azetidin-1-ylmethyl)benzyl)-6-butoxy-1H-pyrazolo[3,4-d]pyrimidin-4-amine]",19,23,> 30
"CCCCOc1nc(N)c2cnn(Cc3ccc(CN4CCCCC4)cc3)c2n1 [Example 3, 6-Butoxy-1-(4-(piperidin-1-ylmethyl)benzyl)-1H-pyrazolo[3,4-d]pyrimidin-4-amine]",3,20,4
